Where “and” joins values, the source holds several entries; their conditions need not be identical. Equal entries are not always repeated. Entries after “also recorded” stand apart in the source; their conditions may differ. Where two headings read alike, the source gives them in different places. Marks after values point to notes of the source that are not given here.
Legend:
[1] = pH of aqueous solutions of the compounds; assay type: physicochemical; settings: stock solutions prepared in culture media diluted with deionized water
Experimental: The pH values shown in Table 1 were determined in aqueous solutions made by diluting stock solutions prepared in culture media with deionized water.

[2] = tested on: SW480 P3 (ATCC #CCL228) human colon carcinoma cells; assay: Screening assay for enhancement of transient expression (β-galactosidase gene, liposomal transfection, 6-well plates); assay type: cell-based; settings: for G Factor (G14): Table 1, values without asterisk, days 4-14 after transfection; for X Factor / K Factor: Table 1; for X Factor: cumulative β-galactosidase vs control, first four days after transfection, compound at the mM given in the table; for K Factor: ratio of first order rate constants of change in expression, control vs compound; for effect on transient expression when present before or during the transfection step: polyanionic carbohydrates, liposomal transfection
Text: These parameters are called the “X” factor, the “G” factor, and the “K” factor. [formula]
This factor reflects the extent to which a chemical compound added to a transfected cell enhances stabilizes transient expression for the first four days following transfection. […] For example, if expression is doubled in the presence of a compound, […]. […] X may be calculated similarly when the agent in question is a mixture of more than one chemical compound.
Cumulative protein expression, i.e., the values for “A” and “C”, is measured by summing the values measured daily in aliquots of the cultured cells.
2. G factors. G factors differ from the X factor only with respect to the time period evaluated. For calculating a G factor, the amount of protein expressed is measured from days 4-7 or days 4-14, where day 0 is the day on which the foreign DNA is added to the cells. The subscripts denote which of the two time periods provided the basis for measurement. […] As for the X factor, [formula]
3. K factor. The K factor is the ratio of the rate constants for the change in the foreign DNA expression in control transfected cells and in cells exposed to a chemical compound of the subject invention. K is determined according to the following equation: [formula]
wherein “k(DNA)” is the first order rate constant for the change in concentration of the protein expressed from the transgenic DNA, which is expressing protein as a function of time, i.e., [formula]
Values for k(DNA) are derived by using a computer program that plots the log of the foreign protein concentration against time, using the results of transgenic protein measurements that begin about 24 hours after the foreign DNA has been added to the cell. […] However, the program calculates a “best fit” line for each data set, and determines the slope of that portion of the resulting line that corresponds to the period during which protein production is changing. […] Thus, the slope is calculated during this period of decline to provide values for k(DNA) and K that can be compared for the purpose of comparing the efficacy of different chemical compounds.
SW480 P3 (ATCC #CCL228) human colon carcinoma cells (typically, 1×10^6 cells) were plated in the wells of a 6-well tissue culture plate. The number of wells plated reflected the number of days post-transfection during which the experiment would proceed. Each well contained 1 ml of complete media from a 30 ml stock solution containing: 26.4 ml RPMI tissue culture medium, 4 mM L-glutamine, 3.0 ml fetal bovine serum, and 10 μg/ml gentamicin. Cells were cultured at 37° C. in a CO2 incubator with 10% CO2 for 24 hours after being plated, during which time the cells adhered to the plates.
After the 24 hour pre-incubation step, the transfection step was carried out by removing the RPMI and adding 900 μL OPTI-MEM® (Gibco) medium containing 2 μg of VR1412 DNA (Vical, Inc., San Diego, Calif.), which expresses the bacterial β-galactosidase gene under the control of a cytomegalovirus promoter, and 8 μg of a mixture of cationic lipid (1,2-dimyristyloxyproply-3-dimethyl-hydroxyethyl ammonium bromide (e.g., “DMRIE/DOPE”) mixed in equimolar proportions with dioleoylphosphatidylethanolamine) to yield a lipid:DNA molar ratio of 0.99:1. It should be noted that typical transient transfection protocols employ 10 μg DNA per 10^6 cells, but the protocol described here uses less DNA in order to reduce toxicity to the cells. The plates were then incubated for 4 hours at 37° C.
After the 4 hour incubation step, 100 μl of heat deactivated fetal bovine serum (to stop transfection), plus 12.0 μl of 50 mg/ml gentamicin were added to each well.

[3] = Table 1, days 4-7 after transfection

| Compound | pH (H20) [1] | G Factor (G14) [2] | X Factor [2] | K Factor [2] | further results |
| --- | --- | --- | --- | --- | --- |
| O=C(O)CCC(=O)C(=O)O [α-KE[…]] | 3.75 | 53 | 7.28 |  |  |
| C[C@@H](O)[C@H](N)C(=O)O [L-THREONINE] | 8.14 | 40 | 28 | 1 |  |
| CCCCCc1ccc(C(=O)O)cc1 [4-PENTYLBENZOIC ACID] |  | −88 | −96 |  |  |
| dermatan sulfate |  |  |  |  | effect on transient expression when present before or during the transfection step [2]: blocking effect |
| N=C(N)NCCC[C@H](N)C(=O)O [L-ARGININE] | 8.66 | 57 |  |  | G Factor (G7) [2, 3]: 11 |
| O=S(=O)(O)CC(O)CN(CCO)CCO (stereo not drawn) [′3-[BIS(2HYDROXYETHYL AMINO)]-2-HYDROXYL-′1-PROPANE SULFONIC ACID] | 6.81 | −10 | −55 |  |  |
| O=C(O)[C@@H]1CCCN1 [PROLINE] | 7.71 | 21 | −22 |  |  |
| O=C([O-])c1ccccc1.[Na+] [SODIUM BENZOATE] | 8.14 | −6 | −15 | 1 |  |
| N[C@@H](CO)C(=O)O [SERINE] | 7.4 | 104 | 43 | 1 |  |
| N-carboxymethylchitosan N,S-sulfate |  |  |  |  | effect on transient expression when present before or during the transfection step [2]: blocking effect |
| hydroxypropyl guaran |  |  |  |  | effect on transient expression [2]: capable of prolonging transient expression; effect on transient expression ([2]; listed as Hydroxypropyl guarans): enhance transient expression to some degree |
| t-butyl benzoic acid |  |  |  |  | effect on transient expression [2]: capable of prolonging transient expression |
| N[C@@H](Cc1cc(I)c(O)c(I)c1)C(=O)O [DIIODOTYROSINE] | 7.23 |  | −48 |  | G Factor (G7) [2, 3]: −8* |
| O=C(O)CCCCC1CCSS1 (stereo not drawn) [α-lipoic acid, lipoic acid] |  |  |  |  | results when substituted for benzoate buffer ([2]; used in conjunction with chondroitin sulfate as in plates 6 or 13 of Table 9): comparable results |
| NCCS(=O)(=O)O [TAURINE] | 7.88 | 34 | −20 | 2 |  |
| ethyoxy benzoic acid |  |  |  |  | effect on transient expression [2]: capable of prolonging transient expression |
| NCCC[C@H](N)C(=O)O [ORNITHINE] |  | 28 | 16 |  |  |
| O=S(=O)(O)CCN(CCO)CCO [BES] | 6.64 |  | 77 and 57 | 1, 1 |  |
| C/C1=C2/[N-][C@H]([C@H](CC(N)=O)[C@@]2(C)CCC(=O)NC[C@@H](C)OP(=O)([O-])O[C@H]2[C@@H](O)[C@@H](n3cnc4cc(C)c(C)cc43)O[C@@H]2CO)[C@]2(C)N=C(/C(C)=C3N=C(/C=C4N=C1[C@@H](CCC(N)=O)C\4(C)C)[C@@H](CCC(N)=O)[C@]\3(C)CC(N)=O)[C@@H](CCC(N)=O)[C@]2(C)CC(N)=O.[CH2-][C@H]1O[C@@H](n2cnc3c(N)ncnc32)[C@H](O)[C@@H]1O.[Co] [COENZYME B12] |  | 51 | −17 |  |  |
| N[C@@H](Cc1ccccc1)C(=O)O [PHENYLALANINE] | 6.97 | 53 | −12 | 3 |  |
| heparin [reference compound] |  |  |  |  | effect on transient expression when added after the transfection step [2]: effective in enhancing transient expression; also recorded: enhance transient expression; effect on transient expression when present before or during the transfection step [2]: blocking effect; also recorded: blocked transient expression |
| C/C1=C2/[N-][C@H]([C@H](CC(N)=O)[C@@]2(C)CCC(=O)NC[C@H](C)OP(=O)([O-])O[C@H]2[C@@H](O)[C@@H](n3cnc4cc(C)c(C)cc43)O[C@@H]2CO)[C@]2(C)N=C(/C(C)=C3N=C(/C=C4N=C1[C@@H](CCC(N)=O)C\4(C)C)[C@@H](CCC(N)=O)[C@]\3(C)CC(N)=O)[C@@H](CCC(N)=O)[C@]2(C)CC(N)=O.[CH3-].[Co+3] [METHYLCOBALAMIN] |  | 25 | 1 |  |  |
| heparan sulfate |  |  |  |  | effect on transient expression when present before or during the transfection step [2]: blocking effect |
| methoxy benzoic acid |  |  |  |  | effect on transient expression [2]: capable of prolonging transient expression |
| carboxymethylcellulose |  |  |  |  | effect on transient expression when present before or during the transfection step [2]: blocking effect |
| isobutyl benzoic acid |  |  |  |  | effect on transient expression [2]: capable of prolonging transient expression |
| iso-propyl benzoic acid |  |  |  |  | effect on transient expression [2]: capable of prolonging transient expression |
| gentamicin [reference compound] |  |  |  |  | effect on protein production ([2]; control plates 1A (with gentamicin) vs 1B (no gentamicin)): somewhat suppressed protein production |

More lines, main results first:

| pH (H20) [1] | Compound | G Factor (G14) [2] | X Factor [2] | K Factor [2] | further results |
| --- | --- | --- | --- | --- | --- |
| 6 | CCc1ccc(C(=O)O)cc1 [4-ETHYLBENZOIC ACID] |  |  | 1 and 2 |  |
| 6.13 | CCCCCCc1ccc(C(=O)O)cc1 [4-HEXYLBENZOIC ACID] |  |  |  |  |
| 7.41 | CSCC[C@H](N)C(=O)O [METHIONINE] | 36 | 2 | 0 |  |
| 6.52 | NC(=O)SC[C@H](N)C(=O)O [S-CARBAMYL-L-CYSTEINE] | −74 | −76 |  |  |
| 8.38 | NCCC(=O)O [β-ALANINE] | 33 | 0.2 | 1 |  |
| 6.91 | O=C(O)c1cccnc1 [NICOTINIC ACID] | 87 | 12 | 1 |  |
| 5.94 | CCCCc1ccc(C(=O)O)cc1 [4-BUTYLBENZOIC ACID] |  |  |  |  |
| 7.59 | CCOC(=O)c1ccc(C(C)=O)cc1 [ETHYL 4-ACETYLBENZOATE] | 42 | 49 | 1 |  |
| 7.58 | CCC(N)C(=O)O (stereo not drawn) [α-AMINO-n-BUTYRIC ACID] | 35 | −.19 | 1 |  |
| 7.45 | CCCCCCCCc1ccc(C(=O)O)cc1 [4-OCTYL BENZOIC ACID] | −665 | −2314 |  |  |
| 6 | Nc1nc2ncc(CNc3ccc(C(=O)N[C@@H](CCC(=O)O)C(=O)O)cc3)nc2c(=O)[nH]1 [FOLIC ACID] | 24 | −1.4 |  |  |
| 8.32 | NCCC(=O)N[C@@H](Cc1cnc[nH]1)C(=O)O [CARNOSINE] | 35 | −8 |  |  |
| 5.75 | N[C@@H](CC(=O)O)C(=O)O [ASPARTIC ACID] | −45 |  |  | G Factor (G7) ([2]; Table 1, values marked with asterisk, days 4-7 after transfection): −17 |
| 4.2 | N[C@@H](CCC(=O)O)C(=O)O [GLUTAMIC ACID] |  |  | 2 |  |
| 5.98 | CCOC(=O)CCCC(C)=O [ETHYL 4-ACETYLBUTYRATE] | 58 | 51 | 1 |  |
| 7.88 | CC(C)C[C@H](N)C(=O)O [LEUCINE] | 32 | −13 |  |  |
| 7.88 | N[C@@H](Cc1ccc(O)cc1)C(=O)O [TYROSINE] | 52 | 36 | 2 |  |
| 8.12 | CC(C)[C@H](N)C(=O)O [VALINE] | 40 | −18 | 2 |  |
| 7.39 | Cn1cncc1C[C@H](N)C(=O)O [3-METHYL-L-HISTIDINE] | 55 | −15 |  |  |

— US20030073654A1, “Stabilized transient gene expression” (Genespan Corporation, priority 1996, published 2003)
